Results on three compounds are retold here after patent US11608328B2, “Chemical probes to identify anti-mycobacterial MmpL3 inhibitors” (Creighton University, priority 2019, dated 2023).

Converted amounts (≈) assume the structure as drawn. “And” between values parts separate entries of the source, which are not always exact repeats. Equal entries are not always repeated. Where two headings read alike, the source gives them in different places. Marks after values point to notes of the source that are not given here.

The test system of data set [1] is Mtb. The conditions noted are these: reported by Brown et al., Bioorg. Med. Chem. 2011; cited from earlier work.
In data set [2] the test system is MsmgΔmmpL3 expressing wild-type mmpL3tb. The data set is described as follows: microbe, parasite or virus in culture. The class given is cell-based. The conditions noted are these: MmpL3 WT.
Data set [3] deals with MsmgΔmmpL3 expressing mmpL3tb L189R. The class given is cell-based, Mycobacterium smegmatis.
Data set [4] deals with MsmgΔmmpL3 expressing mmpL3tb G253E. Format: cell-based, Mycobacterium smegmatis.
The subject of data set [5] is MsmgΔmmpL3 expressing mmpL3tb S288T. The class given is cell-based, Mycobacterium smegmatis.
The subject of data set [6] is MsmgΔmmpL3 expressing mmpL3tb S309C. Format: cell-based, Mycobacterium smegmatis.
The subject of data set [7] is MsmgΔmmpL3 expressing mmpL3tb T311I. The class given is cell-based, Mycobacterium smegmatis.
The test system of data set [8] is MsmgΔmmpL3 expressing mmpL3tb Q372R. Format: cell-based, Mycobacterium smegmatis.
Data set [9] deals with MsmgΔmmpL3 expressing mmpL3tb L567P. The class given is cell-based, Mycobacterium smegmatis.
The subject of data set [10] is MsmgΔmmpL3 expressing mmpL3tb S591I. The class given is cell-based, Mycobacterium smegmatis.
The subject of data set [11] is MsmgΔmmpL3 expressing mmpL3tb F644C. The class given is cell-based, Mycobacterium smegmatis.
The test system of data set [12] is MsmgΔmmpL3 expressing mmpL3tb V684A. The class given is cell-based, Mycobacterium smegmatis.
Data set [13] relates to MsmgΔmmpL3 expressing mmpL3tb LI89A. As to the kind of experiment: microbe, parasite or virus in culture. The class given is cell-based. The conditions noted are these: Table 2; mutant LI89A.
Data set [14] has as its system MsmgΔmmpL3 expressing mmpL3tb G253R. The class given is cell-based, Mycobacterium smegmatis.
The subject of data set [15] is MsmgΔmmpL3 expressing mmpL3tb G253W. The class given is cell-based, Mycobacterium smegmatis.
The subject of data set [16] is MsmgΔmmpL3 expressing mmpL3tb S591W. Format: cell-based, Mycobacterium smegmatis.
In data set [17] the test system is MsmgΔmmpL3 expressing mmpL3tb S591G. The class given is cell-based, Mycobacterium smegmatis.
For data set [18], the system named is MsmgΔmmpL3 expressing mmpL3tb F644C/I/L. The class given is cell-based, Mycobacterium smegmatis.
The subject of data set [19] is MsmgΔmmpL3 expressing mmpL3tb F644Y. Format: cell-based, Mycobacterium smegmatis.
Data set [20] has as its system MsmgΔmmpL3 expressing mmpL3tb V684I. Format: cell-based, Mycobacterium smegmatis.
For data set [21], the system named is MsmgΔmmpL3 expressing mmpL3tb V684W. The class given is cell-based, Mycobacterium smegmatis.
For data set [22], the system named is Mtb. The data set is described as follows: MIC values against Mtb used for the PMF assays. The class given is cell-based, Mycobacterium tuberculosis. The following applies: against Mtb, FIG. 8 legend, read-out: MIC values.
The target in the next data set is purified MmpL3tb protein (Mycobacterium tuberculosis, UniProt P9WJV5). The data set is described as follows: Surface Plasmon Resonance binding to immobilized MmpL3tb.
A further data set concerns the target MmpL3tb (MmpL3^WT) (Mycobacterium tuberculosis, UniProt P9WJV5). The class given is binding. The conditions noted are these: 50, 100 and 200 μM.
The target in the next data set is purified MmpL3-GFP (Mycobacterium tuberculosis, UniProt P9WJV5). The class given is binding. The following applies: 2 μM Compound 2 with increasing inhibitor concentrations.
Data set [23] deals with transfer of mycolic acids onto their cell envelope acceptors in MsmgΔmmpL3/pMVGH1-mmpL3tb. The class given is cell-based. The following applies: 3 hours.
In data set [24] the test system is transmembrane potential (ΔΨ) of intact Mtb H37Rv mc^26206 cells. The data set is described as follows: Membrane potential measurement with DiOC2(3) in intact cells. The class given is cell-based, Mycobacterium tuberculosis.
The subject of data set [25] is transmembrane electrochemical proton gradient (ΔpH) of intact Mtb H37Rv mc^26206 cells. As to the kind of experiment: Electrochemical proton gradient measurement with CMFDA in intact cells. Format: cell-based, Mycobacterium tuberculosis.
For data set [26], the system named is Mtb H37Rv mc^26206 inverted membrane vesicles (IMVs). The data set is described as follows: Succinate-driven proton translocation assay (ACMA) in inverted membrane vesicles. The class given is biochemical, Mycobacterium tuberculosis. The conditions noted are these: one and four times MIC against Mtb. On the procedure:
(§1) FIG. 19A: The reactions were initiated by adding 5 mM succinate. Upon stabilization of the signal, control compounds (INH, RIF, nigericin), the MmpL3 inhibitors or diluent (water, used for INH, or 0.2% DMSO, used for all other compounds) were added and proton translocation monitored fluorimetrically. MmpL3 inhibitors and controls were used at one and four times their MIC concentrations against Mtb. Shown are the averages and standard deviations (error bars) of triplicate measurements.
(§2) Succinate-driven proton translocation assays with the fluorescent substrate ACMA were conducted as previously described (see e.g., Li et al. J. Med. Chem. 2014, 57: 3126-3139) to determine the effect of MmpL3 inhibitors on the electrochemical proton gradient of Mtb H37Rv mc^26206 and E. coli BL21(DE3) IMVs. IMVs (0.18 mg/mL membrane proteins) were pre-incubated at 37° C. in 10 mM HEPES-KOH pH 7.5, 100 mM KCl, 5 mM MgCl2 containing 2 μM ACMA and the baseline monitored for 10 min with a fluorescence spectrophotometer (Victor X5, PerkinElmer). The reaction was then initiated by adding 5 mM succinate. Upon stabilization of the signal, control compounds (INH, RIF, nigericin), MmpL3 inhibitors, or diluent (0.2% DMSO or water) were added and proton translocation monitored fluorimetrically. The excitation and emission wavelengths were 410 nm and 480 nm, respectively.

In the next data set the test system is E. coli BL21(DE3) IMVs. Described as above. Format: biochemical. The conditions noted are these: 2 μg/mL. On the procedure:
as §1, §2

For data set [27] the following is noted: BLI assay buffer.
The target in data set [28] is MmpL3tb in MsmgΔmmpL3/pMVGH1-mmpL3tb cells (Mycobacterium tuberculosis, UniProt P9WJV5). The class given is cell-based.
MmpL3tb in MsmgΔmmpL3/pMVGH1-mmpL3tb cells, sequence (P9WJV5 whole entry, looked up, stated change not applied): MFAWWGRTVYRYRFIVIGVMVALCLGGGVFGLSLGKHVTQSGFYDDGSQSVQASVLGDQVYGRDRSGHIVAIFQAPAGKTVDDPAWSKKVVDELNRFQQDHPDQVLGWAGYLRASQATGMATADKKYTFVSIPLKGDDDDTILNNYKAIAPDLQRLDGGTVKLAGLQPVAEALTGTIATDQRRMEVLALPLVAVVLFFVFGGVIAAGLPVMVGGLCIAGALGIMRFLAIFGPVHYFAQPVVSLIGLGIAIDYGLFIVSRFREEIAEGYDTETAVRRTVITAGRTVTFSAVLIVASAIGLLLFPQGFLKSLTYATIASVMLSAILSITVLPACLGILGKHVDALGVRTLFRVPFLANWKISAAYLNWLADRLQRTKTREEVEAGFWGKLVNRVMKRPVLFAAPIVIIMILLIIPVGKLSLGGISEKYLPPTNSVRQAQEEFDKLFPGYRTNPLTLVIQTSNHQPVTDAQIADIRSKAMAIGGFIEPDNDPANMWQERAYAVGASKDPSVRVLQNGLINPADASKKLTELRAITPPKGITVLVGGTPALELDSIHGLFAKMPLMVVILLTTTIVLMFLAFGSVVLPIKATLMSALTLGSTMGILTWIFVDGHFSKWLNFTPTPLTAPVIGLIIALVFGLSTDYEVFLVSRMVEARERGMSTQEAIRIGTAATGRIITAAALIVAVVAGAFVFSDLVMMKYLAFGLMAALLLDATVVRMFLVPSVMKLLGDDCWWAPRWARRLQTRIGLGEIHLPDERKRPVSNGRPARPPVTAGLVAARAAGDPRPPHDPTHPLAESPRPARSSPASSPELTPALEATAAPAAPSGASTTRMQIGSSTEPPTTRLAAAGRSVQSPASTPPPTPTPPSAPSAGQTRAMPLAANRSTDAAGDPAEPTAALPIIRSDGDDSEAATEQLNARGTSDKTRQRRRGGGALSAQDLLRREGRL

purified MmpL3tb protein, sequence (P9WJV5 whole entry): as the sequence (P9WJV5 whole entry, looked up, stated change not applied) above
purified MmpL3-GFP, sequence (P9WJV5 whole entry): as the sequence (P9WJV5 whole entry, looked up, stated change not applied) above
MmpL3tb (MmpL3^WT), sequence (P9WJV5 whole entry): as the sequence (P9WJV5 whole entry, looked up, stated change not applied) above

Consider `COC(=O)c1ccc(NC(=O)NC23CC4CC(CC(C4)C2)C3)cc1O` [AU, methyl 1-(1-adamantyl)-3-(4-aminosalicylate)urea], for which the “Mtb MIC value” with Mtb [1] was 0.4 µg/mL.

As for `Cc1c(CN2CCN(C)CC2)cc(-c2ccc(Cl)cc2)n1-c1ccc(Cl)cc1` [BM212], the MIC in data set [2] (Table 2) is 4 µg/mL (≈ 9.65 µM); in data set [2] (Tables 1A-1B) it was 6.25 µg/mL (≈ 15.1 µM); in data set [3], 12.5 µg/mL and 8 µg/mL; in [4], 12.5 µg/mL and 8 µg/mL; in data set [5], 25.0^b μg/mL; in data set [6], 12.5 µg/mL (≈ 30.2 µM). Further, the MIC was 12.5 µg/mL (≈ 30.2 µM) in data set [7]; 12.5 µg/mL (≈ 30.2 µM) in [8]; 12.5 µg/mL (≈ 30.2 µM) in data set [9]; 25.0^b μg/mL and 16 μg/mL in data set [10]; 3.13 µg/mL (≈ 7.55 µM) in [11]; 6.25 µg/mL and 4 µg/mL in [12]. Also, the MIC in data set [13] was 8 µg/mL (≈ 19.3 µM); in data set [14] it was 8 µg/mL (≈ 19.3 µM); in data set [15] it was 8 µg/mL (≈ 19.3 µM); in data set [16], 4^c μg/mL; in data set [17], 1^c μg/mL; in [18], 4 µg/mL (≈ 9.65 µM). For the same compound, the MIC is 8 µg/mL (≈ 19.3 µM) in data set [19], 2 µg/mL (≈ 4.83 µM) in data set [20], 4 µg/mL (≈ 9.65 µM) in [21] and 3.76 µM (≈ 1.56 µg/mL) with Mtb [22]. In addition, at purified MmpL3tb protein (SPR global fit), the ka2 is 0.005 1/RU*s. Further, the kd1 on purified MmpL3tb protein (SPR global fit) turned out to be 1.67 s⁻¹. The compound also yielded a kd2 on purified MmpL3tb protein (SPR global fit) of 0.0222 s⁻¹. Further, the ka1 at purified MmpL3tb protein (SPR global fit, HEPES-TX buffer with 5% DMSO) turned out to be 1054.8 M⁻¹ s⁻¹. Also, the “Model (best-fit kinetic model)” value on purified MmpL3tb protein (SPR sensorgrams fit globally) is recorded as “Two-state reaction”. For the same compound, on purified MmpL3tb protein (equilibrium dissociation constant calculated from the rate constants, read-out: KD1), the Kd was 1290 µM. Also, at MmpL3tb (MmpL3^WT), the BLI binding signal result was “only yielded weak binding signals”. For the same compound, the “displacement of Compound 2 from purified MmpL3tb” value on purified MmpL3-GFP is given as “clear concentration-dependent displacement”. For the same compound, the “inhibition of transfer of mycolic acids to cell envelope acceptors” value in [23] is reported as “actually targeted MmpL3tb in the Msmg recombinant system”. Moreover, the “effect on membrane potential (ΔΨ)” value in data set [24] is recorded as “only showed an effect on ΔΨ at the highest concentration tested (8×MIC)”. Besides, the “effect on electrochemical proton gradient (ΔpH)” value in data set [25] is reported as “collapsed ΔpH”. In addition, in [26], the “effect on ΔpH of Mtb IMVs” value was “increase of fluorescence intensity indicative of ΔpH collapse”. The “effect on ΔpH of E. coli IMVs” value in the data set on E. coli BL21(DE3) IMVs is recorded as “showed no such activity”. Also, in data set [27], the “solubility limit in 5% DMSO” value came out at 50 µM (≈ 20.7 µg/mL).

As to `NNC(=O)c1ccncc1` [INH, isoniazid], the MIC in the data set on Mtb [22] (Mycobacterium tuberculosis) was 0.58 µM (≈ 0.0795 µg/mL). Moreover, on purified MmpL3-GFP, the “displacement of Compound 2 from purified MmpL3tb” value was “No significant displacement”. For the same compound, the “displacement of probe (Compound 1 or Compound 2) in intact cells” value in data set [28] is “not observed”.
